For data set [1], the target named is T1, COX2 protein in microglia (Mus musculus, UniProt Q05769).
T1 construct: from tissue; host or cells: microglia isolated from the cerebrum of wild-type and APP/PS1 mice (C57BL/6 background)
T1 sequence (Q05769 18-604): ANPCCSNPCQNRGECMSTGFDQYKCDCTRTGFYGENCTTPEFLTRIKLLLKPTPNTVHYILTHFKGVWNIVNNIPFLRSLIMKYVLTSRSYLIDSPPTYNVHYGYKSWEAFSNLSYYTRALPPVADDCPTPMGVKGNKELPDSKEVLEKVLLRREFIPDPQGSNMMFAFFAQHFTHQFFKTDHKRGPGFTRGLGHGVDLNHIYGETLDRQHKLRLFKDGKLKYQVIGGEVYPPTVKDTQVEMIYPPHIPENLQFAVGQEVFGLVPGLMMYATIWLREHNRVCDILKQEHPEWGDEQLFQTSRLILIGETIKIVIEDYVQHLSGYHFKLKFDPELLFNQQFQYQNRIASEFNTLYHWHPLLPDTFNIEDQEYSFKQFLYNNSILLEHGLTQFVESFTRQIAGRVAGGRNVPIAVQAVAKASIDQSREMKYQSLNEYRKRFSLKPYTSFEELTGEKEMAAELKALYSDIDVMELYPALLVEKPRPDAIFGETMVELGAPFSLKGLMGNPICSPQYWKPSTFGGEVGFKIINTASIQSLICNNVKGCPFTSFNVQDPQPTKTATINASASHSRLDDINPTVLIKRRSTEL
The data set can be described thus: [14C] bound to COX2 immunoprecipitated from microglia after oral [14C]N-acetyl sphingosine. The data set is classed as in vivo. The note with it: 5-month-old APP/PS1 Alzheimer's animal model compared to control (WT); 10 μCi oral; after 1 hour; FIG. 6. From the text:
Mouse experiments have been approved by the Kyungpook National University Institutional Animal Care and Use Committee (IACUC). A transgenic mouse line overexpressing APPswe (hAPP695swe) or PS1 (presenilin-1M146V) based on C57BL/6 mice (Charles River, UK) was used [Hereinafter, “APP mouse”: refers to a mouse overexpressing APPswe, “PS1 mouse”: refers to a mouse overexpressing presenilin-1M146V; GlaxoSmithKline]
After oral administration of 10 μCi of [^14C]N-acetyl sphingosine (American Radiolabeled Chemicals, ARC1024) to 5-month-old wild-type and APP/PS1 mice, microglia were isolated from the cerebra of the mice after 1 hour.
(§1) The COX2 protein of isolated microglia and neuroblastoma SH-SY5Y were isolated by immunoprecipitation, and then liquid scintillation counting was performed on [^14C].
After 1 hour, the COX2 in microglia was isolated from the control and the Alzheimer's animal model by immunoprecipitation, and the amount of COX2 labeled with [^14C] was confirmed.

Data set [2] deals with T2, COX2 protein in neuroblastoma SH-SY5Y (Homo sapiens, UniProt P35354).
T2 construct: endogenous in cells; host or cells: SH-SY5Y neuroblastoma cells
T2 sequence (P35354 18-604): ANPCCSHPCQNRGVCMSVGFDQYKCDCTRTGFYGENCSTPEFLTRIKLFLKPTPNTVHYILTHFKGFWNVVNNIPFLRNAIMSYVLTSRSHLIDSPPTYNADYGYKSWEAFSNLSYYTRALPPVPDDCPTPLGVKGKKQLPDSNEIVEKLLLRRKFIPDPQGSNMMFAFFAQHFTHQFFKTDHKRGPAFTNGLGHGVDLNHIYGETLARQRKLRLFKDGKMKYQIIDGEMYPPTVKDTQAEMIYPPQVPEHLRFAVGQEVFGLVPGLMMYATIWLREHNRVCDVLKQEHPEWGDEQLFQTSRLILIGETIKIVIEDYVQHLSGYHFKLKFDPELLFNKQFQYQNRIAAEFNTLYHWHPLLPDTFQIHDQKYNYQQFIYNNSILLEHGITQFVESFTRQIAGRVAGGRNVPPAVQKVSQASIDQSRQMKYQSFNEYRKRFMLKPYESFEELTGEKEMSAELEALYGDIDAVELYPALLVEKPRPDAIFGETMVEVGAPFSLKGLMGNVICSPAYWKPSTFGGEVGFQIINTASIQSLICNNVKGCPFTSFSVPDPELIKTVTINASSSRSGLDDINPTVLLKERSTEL
The experiment in a line: [14C] bound to COX2 immunoprecipitated from neuroblastoma SH-SY5Y cells treated with [14C]N-acetyl sphingosine. The data set is classed as cell-based. The note with it: neuroblastoma SH-SY5Y compared to control; 2 μCi; after 1 hour; FIG. 8. On the procedure:
In addition, neuroblastoma SH-SY5Y was treated with 2 μCi of [^14C]N-acetyl sphingosine (American Radiolabeled Chemicals, ARC1024) for 1 hour, and then cells were collected.
as §1
In other words, [^14C]N-acetyl sphingosine ([^14C]N-AS), in which carbon of N-AS strongly binding to COX2 was substituted with an isotope, was treated to the cancer cells (2 μCi). After 1 hour, the COX2 was isolated from the control and the cancer cells, neuroblastoma SH-SY5Y by immunoprecipitation, and the amount of COX2 labeled with [^14C] was confirmed.

For another data set, the target named is T3, wild type COX2 (Homo sapiens, UniProt P35354).
T3 sequence (P35354 18-604): T2 sequence (P35354 18-604)
The experiment in a line: Filter binding assay / enzymatic analysis of COX2, wild type. The conditions noted are these: [14C]N-acetyl sphingosine binding to wild-type COX2, saturation plot; FIG. 3. As to the method: The binding activity of wild type COX2 or mutant COX2 (N181A, T564A, S565A, S567A) and N-acetyl sphingosine (N-AS) was analyzed by filter binding assay (Nat Commun. 2018 Apr. 16; 9(1):1479).
The binding rate (Vbinding) of [^14C]N-acetyl sphingosine (American Radiolabeled Chemicals, ARC1024) to wild-type COX2 and mutant COX2 (N181A, T564A, S565A, S567A) was expressed as the concentration of N-acetyl sphingosine. […] By using the calculated Kcat and KM, Kcat/KM (catalytic efficiency), which has been widely used as a measure of enzyme performance, was calculated from wild-type COX2 and mutant-type COX2 (N181A, T564A, S565A, S567A).

Data set [3] is described as follows: Brain distribution after oral or intravenous administration to normal mice. The data set is classed as in vivo, mouse. The conditions noted are these: for Kp: mouse, brain, FIG. 4C. As to the method:
FIGS. 4A to 4C illustrate a result of showing a concentration remaining in the brain for each time period after oral (p.o. 10 mg/kg) or intravenous administration (i.v. 1 mg/kg) of N-acetyl sphingosine to normal mice (FIG. 4A), a result of showing a concentration remaining in the brain after 24 hours (FIG. 4B), and a pharmacokinetic test analysis result for a brain distribution (FIG. 4C) (n=3/group).
In order to apply the compounds of the present invention to the diagnosis of degenerative brain diseases, it is important to distribute the compounds well to the brain after administration. To confirm this, the N-AS was administered orally (10 mg/kg) or through tail vein (1 mg/kg), and then the brain was extracted by time to measure the concentration of N-AS, and after 24 hours, the brain was extracted to measure the concentration of the remaining N-AS.

Structures are written as SMILES.

On to `CCCCCCCCCCCCC/C=C/[C@@H](O)[C@H](CO)N[14C](C)=O` [[^14C]N-AS, [^14C]N-acetyl sphingosine], for which the “amount of [14C]-labeled COX2 in microglia” value in data set [1] is “increased”. The “amount of [14C]-labeled COX2 in cancer cells” value in data set [2] is listed as “increased”.
Compound `CCCCCCCCCCCCC/C=C/[C@@H](O)[C@H](CO)NC(C)=O` [N-AS, N-acetyl sphingosine] had a Kcat on wild type COX2 of 0.008 s⁻¹. For the same compound, the Kp in data set [3] (intravenous, tail vein administration 1 mg/kg) amounted to 2.16; in data set [3] (oral administration 10 mg/kg) it was 3.18. Further, in data set [3] (oral 10 mg/kg or tail vein 1 mg/kg, by time and after 24 hours, FIGS. 4A and 4B), the “concentration of N-AS in the brain” value is “high”.

Source of the values: patent US12332244B2, “Composition for diagnosing diseases associated with COX2 overexpression and screening method therefor” (KYUNGPOOK NATIONAL UNIVERSITY INDUSTRY-ACADEMIC COOPERATION …, priority 2018, dated 2025).
